{
  "source": "EPA's ToxValDB 9.5 (doi:10.2903/j.efsa.2017.4693)",
  "key": {"Typhlodromus pyri": {"test_system": "Typhlodromus pyri", "assay": "LR50; higher = less toxic", "conditions": "not reported; mortality"}, "Lepomis macrochirus": {"test_system": "Lepomis macrochirus", "conditions": "acute; duration: 96 hours; mortality"}, "Canidae": {"test_system": "Canidae", "conditions": "oral, Dog Other, body weight"}, "Daphnia magna": {"test_system": "Daphnia magna", "conditions": "chronic/long-term; duration: 21 days; reproduction"}, "Colinus virginianus": {"test_system": "Colinus virginianus", "conditions": "acute; oral; mortality"}, "Mus musculus": {"test_system": "Mus musculus", "conditions": "acute; oral; mortality"}, "Tagia sp.": {"test_system": "Tagia sp.", "conditions": "chronic/long-term; reproduction"}, "Oncorhynchus mykiss": {"test_system": "Oncorhynchus mykiss", "conditions": "chronic/long-term; duration: 87 days; growth"}, "Hypoaspis aculeifer": {"test_system": "Hypoaspis aculeifer", "conditions": "chronic/long-term; duration: 14 days; reproduction"}, "Apis mellifera": {"test_system": "Apis mellifera", "conditions": "acute, duration: 48 hours, mortality"}},
  "data": [
    {"compound": "COc1ccc(-c2ccccc2)cc1NNC(=O)OC(C)C", "note": "[Bifenazate]", "values": [
      {"measurement": "LR50", "setting": "Typhlodromus pyri", "value": 23.8, "unit": "g/ha"},
      {"measurement": "LC50", "setting": "Lepomis macrochirus", "value": 0.58, "unit": "µg/mL"},
      {"measurement": "LD50", "setting": "Rattus norvegicus; acute, oral, mortality", "value": "> 5000", "unit": "mg/kg-day"},
      {"measurement": "NOAEL", "setting": "Rattus norvegicus; chronic, duration: 2 years, hematological", "value": 1, "unit": "mg/kg-day"},
      {"measurement": "NOAEL", "setting": "Rattus norvegicus; reproduction developmental, body weight", "value": 10, "unit": "mg/kg-day"},
      {"measurement": "NOAEL", "setting": "Rattus norvegicus; reproduction developmental, food consumption", "value": 1.5, "unit": "mg/kg-day"},
      {"measurement": "NOEL", "setting": "Anas platyrhynchos; reproductive, duration: 23 weeks, F", "value": 2.3, "unit": "mg/kg-day"},
      {"measurement": "LD50", "setting": "Anas platyrhynchos; short-term, oral, feed, mortality", "value": 106, "unit": "mg/kg-day"},
      {"measurement": "NOAEL", "setting": "Canidae; chronic, duration: 1 years", "value": 1, "unit": "mg/kg-day"},
      {"measurement": "NOAEL", "setting": "Canidae; subchronic, duration: 90 days", "value": 1, "unit": "mg/kg-day"},
      {"measurement": "NOEC", "setting": "Daphnia magna", "value": 0.15, "unit": "mg/L"},
      {"measurement": "LD50", "setting": "Colinus virginianus", "value": 1040, "unit": "mg/kg-day"},
      {"measurement": "LD50", "setting": "Mus musculus", "value": "> 5000", "unit": "mg/kg-day"},
      {"measurement": "NOEC", "setting": "Tagia sp.", "value": 9.75, "unit": "mg/kg"},
      {"measurement": "NOEC", "setting": "Oncorhynchus mykiss", "value": 0.017, "unit": "mg/L"},
      {"measurement": "NOEC", "setting": "Hypoaspis aculeifer", "value": 6.56, "unit": "mg/kg"},
      {"measurement": "LD50", "setting": "Apis mellifera; dermal", "value": 8.5, "unit": "µg/piece"},
      {"measurement": "LD50", "setting": "Apis mellifera; oral, unspecified", "value": "> 100", "unit": "µg/piece"}
    ]}
  ]
}
